The values that follow come from patent US20110166220A1, “DRONEDARONE FOR THE PREVENTION OF PERMANENT ATRIAL FIBRILLATION” (SANOFI-AVENTIS, priority 2008, published 2011).

Structures are written as SMILES. Where a name gives a salt, the structure may show the parent alone.

A short description of experiment [1]: Same trial: prevention of cardiovascular hospitalization or death in patients with permanent atrial fibrillation. The format is in vivo. The method, then:
The invention is illustrated with the data below. Efficacy of dronedarone and its pharmaceutically acceptable salts versus placebo for the prevention of permanent atrial fibrillation was provided via dronedarone hydrochloride during a prospective, multinational, double-blind, randomized, multi-center, placebo-controlled, parallel group trial. Study drug treatment units (placebo or dronedarone hydrochloride corresponding to 400 mg of base) were such that each patient took one tablet in the morning during or shortly after breakfast and one tablet in the evening during or shortly after dinner. The treatment duration depended on the time of recruitment of each patient in the trial and could be comprised from 12 months to 30 months. From the 4628 patients included in the trial, 2301 were part of the group treated with dronedarone hydrochloride. “Patients with permanent atrial fibrillation or flutter” means patients with a history of atrial fibrillation or atrial flutter, who were in atrial fibrillation or flutter at the time of recruitment but who had not a previous history of permanent atrial fibrillation or flutter and who stayed in permanent atrial fibrillation or flutter during all the trial. The results obtained during this trial were analyzed by the Kaplan Meier method for the figures and the relative risk (RR) was estimated using Cox's proportional effect regression model. The relative risk (RR) is the ratio of the rates of occurrence of a hospitalization or death in patients receiving dronedarone compared with patients receiving a placebo. The percentage reduction x of a given event (hospitalization, death, cardiovascular death and the like) is calculated in the following manner: x=1−relative risk. Of the 4628 patients included in the study, 2301 formed part of the group treated with dronedarone hydrochloride. […] 74 events were recorded in the placebo group against 29 in the group treated with dronedarone hydrochloride. The calculated relative risk is 0.67 with p=0.06, that is a 33% reduction in cardiovascular hospitalizations and deaths under dronedarone hydrochloride.

Experiment [2] can be described thus: Prospective, multinational, double-blind, randomized, placebo-controlled, parallel group trial: prevention of permanent atrial fibrillation/flutter. In kind it is in vivo. Particulars: of 2301 patients treated; 400 mg of base twice daily with meals, 12 to 30 months; placebo 294; Fischer's exact test p<0.001. An excerpt:
The invention is illustrated with the data below. Efficacy of dronedarone and its pharmaceutically acceptable salts versus placebo for the prevention of permanent atrial fibrillation was provided via dronedarone hydrochloride during a prospective, multinational, double-blind, randomized, multi-center, placebo-controlled, parallel group trial.
Patients must have a history of atrial fibrillation or atrial flutter and/or may be in normal sinus rhythm or in atrial fibrillation or flutter at the time of recruitment. Recruitment of patients was conducted taking into account the following inclusion criteria:
1) One of the following risk factors had to be present: • age equal to or greater than 70 years, • hypertension (taking antihypertensives of at least two different classes), • diabetes, • history of cerebral stroke (transient ischemic event or completed cerebral stroke) or of systemic embolism, • left atrial diameter greater than or equal to 50 mm measured by echocardiography, • left ventricular ejection fraction less than 40%, measured by two-dimensional echography; […]

Turning to `CCCCc1oc2ccc(NS(C)(=O)=O)cc2c1C(=O)c1ccc(OCCCN(CCCC)CCCC)cc1` [dronedarone hydrochloride, 2-n-butyl-3-[4-(3-di-n-butylaminopropoxy)benzoyl]-5-methylsulfonamido-benzofuran], the “events (cardiovascular hospitalization or death) recorded in patients in permanent atrial fibrillation” value in experiment [1] (178 patients in permanent AF in treated group, placebo 74 events of 294 patients) is recorded as 29 events. Also, the “relative risk (RR) of cardiovascular hospitalization or death versus placebo” value in experiment [1] (patients in permanent atrial fibrillation, Cox's proportional effect regression model, p=0.06) was 0.67. For the same molecule, in experiment [1] (patients in permanent atrial fibrillation, versus placebo, p=0.06), the “reduction in cardiovascular hospitalizations and deaths (x=1-relative risk)” value turned out to be 33%. The “number of patients with permanent atrial fibrillation/flutter” value in experiment [2] is listed as 178 patients.
